# From patent US12227535B2, “Triterpene saponins, methods of synthesis and uses thereof” (SLOAN KETTERING INSTITUTE FOR CANCER RESEARCH, priority 2008, dated 2025)
# Experiments:
# GD3 ganglioside = assay: Anti-GD3 antibody ELISA after vaccination of mice with GD3-KLH conjugate plus QS-21 adjuvants (Example 4); format: in vivo, mice (C57BL/6J, female); settings: after 3 weekly vaccinations with GD3-KLH; adjuvant doses 10 and 20 μg; compared with GD3-KLH alone
# Protocol: Using similar protocols, the immuno-potentiating properties of the synthetic adjuvants SQS-21-Api and SQS-21-Xyl were evaluated in mice (C57BL/6J, female, six weeks of age). […]
# Groups of five mice were immunized with the melanoma antigen GD3 ganglioside conjugated to KLH (GD3-KLH) at a 10 μg antigen dose per vaccination. […] Immunopotentiation was assessed by testing for the presence of antibody against GD3 and KLH by ELISA, and against a tumor cell-line SK-MEL-28, expressing GD3 antigen, by FACS.
# The antibody response after vaccination with GD3-KLH conjugate with or without adjuvant was determined with an ELISA assay using either GD3 ganglioside or KLH protein as target. […] After the third vaccination, no IgG antibodies against GD3 were detected; however, after the fourth immunization IgM and IgG antibody titers were induced in most mice. […]
# [1] = Toxicity: loss of weight after each injection; format: in vivo, mice (C57BL/6J, female); settings: monitored 0 h, 24 h, 48 h, 72 h after each injection; GD3-KLH 10 μg; adjuvant 20 μg; 4-week duration
# Protocol: As a measure of toxicity, loss of weight was monitored at 0 h, 24 h, 48 h and 72 h after each injection. […] As the negative control, vaccinations employing GD3-KLH only (no adjuvant) led to no appreciable weight loss after each injection.
# [2] = in vivo; cited from earlier work
Compound,IgM antibody response against GD3 (antibody titers) (GD3 ganglioside),weight loss after each injection [1],maximum dose [2] [µg]
"CC[C@H](C)[C@H](C[C@H](O)CC(=O)O[C@H]1C(C)O[C@@H](OC(=O)[C@]23CCC(C)(C)CC2C2=CCC4C5(C)CC[C@H](O[C@@H]6OC(C(=O)O)[C@@H](O)[C@H](O[C@@H]7OC[C@@H](O)[C@H](O)C7O)C6O[C@@H]6OC(CO)[C@H](O)[C@H](O)C6O)[C@](C)(C=O)[C@@H]5CC[C@]4(C)[C@]2(C)CC3O)C(O[C@@H]2OC(C)[C@H](O[C@@H]3OC[C@@H](O)C(O[C@@H]4OCC(O)(CO)[C@@H]4O)C3O)C(O)C2O)C1O)OC(=O)C[C@@H](O)C[C@H](O[C@@H]1O[C@@H](CO)C(O)C1O)[C@@H](C)CC (some centres unmarked) [SQS-21-Api, QS-21-Api]",significantly higher than the group with GD3-KLH alone,very similar,–
"CC[C@H](C)[C@H](C[C@H](O)CC(=O)O[C@H]1C(C)O[C@@H](OC(=O)[C@]23CCC(C)(C)CC2C2=CCC4C5(C)CC[C@H](O[C@@H]6OC(C(=O)O)[C@@H](O)[C@H](O[C@@H]7OC[C@@H](O)[C@H](O)C7O)C6O[C@@H]6OC(CO)[C@H](O)[C@H](O)C6O)[C@](C)(C=O)[C@@H]5CC[C@]4(C)[C@]2(C)CC3O)C(O[C@@H]2OC(C)[C@H](O[C@@H]3OC[C@@H](O)C(O[C@@H]4OC[C@@H](O)C(O)C4O)C3O)C(O)C2O)C1O)OC(=O)C[C@@H](O)C[C@H](O[C@@H]1O[C@@H](CO)C(O)C1O)[C@@H](C)CC (some centres unmarked) [SQS-21-Xyl, QS-21-Xyl]",significantly higher than the group with GD3-KLH alone,very similar,–
QS-21,–,–,≤ 50
